Source: PubChem BioAssay (NCI)
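How tested: cells in 96-well plates exposed to compound for 48 hours at five concentrations. GI50 = concentration required for 50% inhibition of growth. TGI marks complete inhibition of growth.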

Tests used:
Assay in all cases: NCI tumour cell line growth inhibition, 48 h
HCC-2998 colon = test system: HCC-2998 colon
HT29 colon = test system: HT29 colon
IGROV1 ovarian = test system: IGROV1 ovarian
NCI-H23 lung = test system: NCI-H23 lung
HCT-116 colon = test system: HCT-116 colon
A549 NSCLC = test system: A549 NSCLC
OVCAR-5 ovarian = test system: OVCAR-5 ovarian
SNB-19 CNS = test system: SNB-19 CNS
UACC-257 melanoma = test system: UACC-257 melanoma
RXF 393 renal = test system: RXF 393 renal
A498 renal = test system: A498 renal
LOX IMVI melanoma = test system: LOX IMVI melanoma
HOP-62 NSCLC = test system: HOP-62 NSCLC
HOP-92 NSCLC = test system: HOP-92 NSCLC
COLO 205 colon = test system: COLO 205 colon
SK-MEL-5 melanoma = test system: SK-MEL-5 melanoma
ACHN renal = test system: ACHN renal
SK-OV-3 ovarian = test system: SK-OV-3 ovarian
K-562 leukemia = test system: K-562 leukemia
M14 melanoma = test system: M14 melanoma
OVCAR-8 ovarian = test system: OVCAR-8 ovarian
NCI-H226 lung = test system: NCI-H226 lung
MDA-MB-435 = test system: MDA-MB-435
BT-549 breast = test system: BT-549 breast
SW-620 colon = test system: SW-620 colon
PC-3 prostate = test system: PC-3 prostate
OVCAR-4 ovarian = test system: OVCAR-4 ovarian
MOLT-4 leukemia = test system: MOLT-4 leukemia
UO-31 renal = test system: UO-31 renal

SMILES: C#CCNCCCN1C(=O)c2ccc3c4c(ccc(c24)C1=O)C(=O)N(CCCNCC#C)C3=O
- GI50 (HCC-2998 colon): 0.242 µM
- TGI (HCC-2998 colon): 0.766 µM
- GI50 (HT29 colon): 0.0766 µM
- TGI (HT29 colon): 0.539 µM
- GI50 (IGROV1 ovarian): 0.187 µM
- TGI (IGROV1 ovarian): 0.972 µM
- GI50 (NCI-H23 lung): 0.22 µM
- TGI (NCI-H23 lung): 0.669 µM
- GI50 (HCT-116 colon): 0.157 µM
- TGI (HCT-116 colon): 1.95 µM
- GI50 (A549 NSCLC): 0.134 µM
- TGI (A549 NSCLC): 0.393 µM
- GI50 (OVCAR-5 ovarian): 0.534 µM
- TGI (OVCAR-5 ovarian): 2.61 µM
- GI50 (SNB-19 CNS): 0.328 µM
- TGI (SNB-19 CNS): 1.45 µM
- GI50 (UACC-257 melanoma): 0.181 µM
- TGI (UACC-257 melanoma): 0.342 µM
- GI50 (RXF 393 renal): 0.228 µM
- TGI (RXF 393 renal): 1.07 µM
- GI50 (A498 renal): 0.312 µM
- TGI (A498 renal): 1.41 µM
- GI50 (LOX IMVI melanoma): 0.205 µM
- TGI (LOX IMVI melanoma): 0.637 µM
- GI50 (HOP-62 NSCLC): 0.267 µM
- TGI (HOP-62 NSCLC): 1.56 µM
- GI50 (HOP-92 NSCLC): 1.79 µM
- TGI (HOP-92 NSCLC): 7.74 µM
- GI50 (COLO 205 colon): 0.0911 µM
- TGI (COLO 205 colon): 0.238 µM
- GI50 (SK-MEL-5 melanoma): 0.14 µM
- TGI (SK-MEL-5 melanoma): 0.274 µM
- GI50 (ACHN renal): 0.144 µM
- TGI (ACHN renal): 1.74 µM
- GI50 (SK-OV-3 ovarian): 0.645 µM
- TGI (SK-OV-3 ovarian): 4.32 µM
- GI50 (K-562 leukemia): 0.23 µM
- TGI (K-562 leukemia): 1.63 µM
- GI50 (M14 melanoma): 0.317 µM
- TGI (M14 melanoma): 0.987 µM
- GI50 (OVCAR-8 ovarian): 0.18 µM
- TGI (OVCAR-8 ovarian): 1.55 µM
- GI50 (NCI-H226 lung): 0.151 µM
- TGI (NCI-H226 lung): 0.551 µM
- GI50 (MDA-MB-435): 0.189 µM
- TGI (MDA-MB-435): 0.404 µM
- GI50 (BT-549 breast): 1.44 µM
- TGI (BT-549 breast): 2.89 µM
- GI50 (SW-620 colon): 0.154 µM
- TGI (SW-620 colon): 0.992 µM
- GI50 (PC-3 prostate): 0.463 µM
- TGI (PC-3 prostate): 4.41 µM
- GI50 (OVCAR-4 ovarian): 0.137 µM
- TGI (OVCAR-4 ovarian): 0.279 µM
- GI50 (MOLT-4 leukemia): 0.188 µM
- TGI (MOLT-4 leukemia): 0.869 µM
- GI50 (UO-31 renal): 0.26 µM
- TGI (UO-31 renal): 1.38 µM
